Results on 29 molecules are retold here after EP2951180B1, “2,6,7,8 SUBSTITUTED PURINES AS HDM2 INHIBITORS” (Merck Sharp & Dohme Corp., priority 2013, dated 2014).

In general, IC50 refers to the point on the concentration scale where inhibition reaches its midpoint. Read a low IC50 as greater potency.

In the test the target is T1, HDM2 (Homo sapiens, UniProt Q00987).
T1 construct: Thioredoxin (N); made in house; host or cells: E. coli strain BL21(DE3)Rosetta
T1 sequence (Q00987 17-125): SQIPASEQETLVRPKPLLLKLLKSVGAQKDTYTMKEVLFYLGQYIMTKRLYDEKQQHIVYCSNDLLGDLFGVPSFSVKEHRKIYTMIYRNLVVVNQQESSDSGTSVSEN
Nature of the test: FRET assay (HDM2 inhibition; method not described in this part). Type of test: binding. The following applies: Table 2.
For the molecule `Cc1ccc(-c2nc3nc(C(=O)O)nc(N[C@H](C)C4CC4)c3n2Cc2ccc(C(F)(F)F)cc2)c(C)c1` [Example 2.52, 6-{[(1R)-1-cyclopropylethyl]amino}-8-(2,4-dimethylphenyl)-7-[4-(trifluoromethyl)benzyl]-7H-purine-2-carboxylic acid], the IC50 turned out to be 309 nM.
`C[C@@H](Nc1nc(C(=O)O)nc2nc(-c3ccc(Cl)c(F)c3)n(Cc3ccc(C(F)(F)F)cc3)c12)C1CC1` [Example 2.53, 8-(4-chloro-3-fluorophenyl)-6-{[(1R)-1-cyclopropylethyl]amino}-7-[4-(trifluoromethyl)benzyl]-7H-purine-2-carboxylic acid] gave a concentration for half-maximal inhibition (IC50) of 200 nM.
Regarding `Cc1cc(OC(F)(F)F)ccc1-c1nc2nc(C(=O)O)nc(N[C@H](C)C3CC3)c2n1Cc1ccc(C(F)(F)F)cc1` [Example 2.54, 6-{[(1R)-1-cyclopropylethyl]amino}-8-[2-methyl-4-(trifluoromethoxy)phenyl]-7-[4-(trifluoromethyl)benzyl]-7H-purine-2-carboxylic acid], the IC50 was 826 nM.
With `C[C@@H](Nc1nc(C(=O)O)nc2nc(-c3ccccc3Cl)n(Cc3ccc(C(F)(F)F)cc3)c12)C1CC1` [Example 2.55, 8-(2-chlorophenyl)-6-{[(1R)-1-cyclopropylethyl]amino}-7-[4-(trifluoromethyl)benzyl]-7H-purine-2-carboxylic acid] the figure was 98.3 nM.
The molecule `C[C@@H](Nc1nc(C(=O)O)nc2nc(-c3cccc(F)c3)n(Cc3ccc(C(F)(F)F)cc3)c12)C1CC1` [Example 2.56, 6-{[(1R)-1-cyclopropylethyl]amino}-8-(3-fluorophenyl)-7-[4-(trifluoromethyl)benzyl]-7H-purine-2-carboxylic acid] returned a concentration for half-maximal inhibition (IC50) of 261 nM.
Molecule `C[C@@H](Nc1nc(C(=O)O)nc2nc(-c3ccc(C#N)cc3)n(Cc3ccc(C(F)(F)F)cc3)c12)C1CC1` [Example 2.57, 8-(4-cyanophenyl)-6-{[(1R)-1-cyclopropylethyl]amino}-7-[4-(trifluoromethyl)benzyl]-7H-purine-2-carboxylic acid] had an IC50 of 432 nM.
With `C[C@@H](Nc1nc(C(=O)O)nc2nc(-c3ccc(Cl)cc3Cl)n(Cc3ccc(C(F)(F)F)cc3)c12)C1CC1` [Example 2.58, 6-{[(1R)-1-cyclopropylethyl]amino}-8-(2,4-dichlorophenyl)-7-[4-(trifluoromethyl)benzyl]-7H-purine-2-carboxylic acid], the IC50 worked out at 213 nM.
With `Cc1cccc(-c2nc3nc(C(=O)O)nc(N[C@H](C)C4CC4)c3n2Cc2ccc(C(F)(F)F)cc2)c1C` [Example 2.59, 6-{[(1R)-1-cyclopropylethyl]amino}-8-(2,3-dimethylphenyl)-7-[4-(trifluoromethyl)benzyl]-7H-purine-2-carboxylic acid], the IC50 came to 147 nM.
The same measure for `C[C@@H](Nc1nc(C(=O)O)nc2nc(-c3ccc4ccccc4c3)n(Cc3ccc(C(F)(F)F)cc3)c12)C1CC1` [Example 2.60, 6-{[(1R)-1-cyclopropylethyl]amino}-8-naphthalen-2-yl-7-[4-(trifluoromethyl)benzyl]-7H-purine-2-carboxylic acid]: 306 nM; for `C[C@@H](Nc1nc(C(=O)O)nc2nc(-c3ccc(F)c(Cl)c3)n(Cc3ccc(C(F)(F)F)cc3)c12)C1CCC1` [Example 2.61, 8-(3-chloro-4-fluorophenyl)-6-{ [(1R)-1-cyclobutylethyl]amino}-7-[4-(trifluoromethyl)benzyl]-7H-purine-2-carboxylic acid]: 22.7 nM.
The same measure for `Cc1cccc(C)c1-c1nc2nc(C(=O)O)nc(N[C@H](C)C3CC3)c2n1Cc1ccc(C(F)(F)F)cc1` [Example 2.62, 6-{[(1R)-1-cyclopropylethyl]amino}-8-(2,6-dimethylphenyl)-7-[4-(trifluoromethyl)benzyl]-7H-purine-2-carboxylic acid]: 65.6 nM; for `C[C@@H](Nc1nc(C(=O)O)nc2nc(-c3cc(Cl)ccc3Cl)n(Cc3ccc(C(F)(F)F)cc3)c12)C1CCC1` [Example 2.63, 6-{[(1R)-1-cyclobutylethyl]amino}-8-(2,5-dichlorophenyl)-7-[4-(trifluoromethyl)benzyl]-7H-purine-2-carboxylic acid]: 10.9 nM; for `COc1cc(C#N)cc(-c2nc3nc(C(=O)O)nc(N[C@H](C)C4CCC4)c3n2Cc2ccc(C(F)(F)F)cc2)c1` [Example 2.64, 8-(3-cyano-5-methoxyphenyl)-6-{[(1R)-1-cyclobutylethyl]amino}-7-[4-(trifluoromethyl)benzyl]-7H-purine-2-carboxylic acid]: 89.1 nM.
Take `Cc1cccc(-c2nc3nc(C(=O)O)nc(N[C@H](C)C4CC4)c3n2Cc2ccc(C(F)(F)F)cc2)c1F` [Example 2.65, 6-{[(1R)-1-cyclopropylethyl]amino}-8-(2-fluoro-3-methylphenyl)-7-[4-(trifluoromethyl)benzyl]-7H-purine-2-carboxylic acid]: the IC50 worked out at 182 nM.
Turning to `COc1ccc(-c2nc3nc(C(=O)O)nc(N[C@H](C)C4CC4)c3n2Cc2ccc(C(F)(F)F)cc2)cc1Cl` [Example 2.66, 8-(3-chloro-4-methoxyphenyl)-6-{[(1R)-1-cyclopropylethyl]amino}-7-[4-(trifluoromethyl)benzyl]-7H-purine-2-carboxylic acid], the 50% inhibitory concentration (IC50) stood at 112 nM.
Turning to `C[C@@H](Nc1nc(C(=O)O)nc2nc(-c3cccc(OC(F)F)c3)n(Cc3ccc(C(F)(F)F)cc3)c12)C1CCC1` [Example 2.67, 6-{[(1R)-1-cyclobutylethyl]amino}-8-[3-(difluoromethoxy)phenyl]-7-[4-(trifluoromethyl)benzyl]-7H-purine-2-carboxylic acid], the half-inhibitory concentration (IC50) turned out to be 41.7 nM.
`C[C@@H](Nc1nc(C(=O)O)nc2nc(-c3ccc(F)cc3F)n(Cc3ccc(C(F)(F)F)cc3)c12)C1CCC1` [Example 2.68, 6-{[(1R)-1-cyclobutylethyl]amino}-8-(2,4-difluorophenyl)-7-[4-(trifluoromethyl)benzyl]-7H-purine-2-carboxylic acid] had an IC50 of 22.4 nM.
`C[C@@H](Nc1nc(C(=O)O)nc2nc(-c3ccc4ncccc4c3)n(Cc3ccc(C(F)(F)F)cc3)c12)C1CC1` [Example 2.69, 6-{[(1R)-1-cyclopropylethyl]amino}-8-quinolin-6-yl-7-[4-(trifluoromethyl)benzyl]-7H-purine-2-carboxylic acid] gave an IC50 of 296 nM.
With `C[C@@H](Nc1nc(C(=O)O)nc2nc(-c3cnc(N(C)C)nc3)n(Cc3ccc(C(F)(F)F)cc3)c12)C1CC1` [Example 2.70, 6-{[(1R)-1-cyclopropylethyl]amino}-8-[2-(dimethylamino)pyrimidin-5-yl]-7-[4-(trifluoromethyl)benzyl]-7H-purine-2-carboxylic acid] the figure was 1020 nM.
As to `COc1cc(-c2nc3nc(C(=O)O)nc(N[C@H](C)C4CC4)c3n2Cc2ccc(C(F)(F)F)cc2)ccn1` [Example 2.71, 6-{[(1R)-1-cyclopropylethyl]amino}-8-(2-methoxypyridin-4-yl)-7-[4-(trifluoromethyl)benzyl]-7H-purine-2-carboxylic acid], half-maximal inhibition (IC50) required 589 nM.
In turn, `CCOc1ccc(-c2nc3nc(C(=O)O)nc(N[C@H](C)C4CC4)c3n2Cc2ccc(C(F)(F)F)cc2)cn1` [Example 2.72, 6-{[(1R)-1-cyclopropylethyl]amino}-8-(6-ethoxypyridin-3-yl)-7-[4-(trifluoromethyl)benzyl]-7H-purine-2-carboxylic acid] had an IC50 of 613 nM.
With `C[C@@H](Nc1nc(C(=O)O)nc2nc(-c3cccc(F)c3F)n(Cc3ccc(C(F)(F)F)cc3)c12)C1CC1` [Example 2.73, 6-{[(1R)-1-cyclopropylethyl]amino}-8-(2,3-difluorophenyl)-7-[4-(trifluoromethyl)benzyl]-7H-purine-2-carboxylic acid], it took 111 nM to reach half-maximal inhibition (IC50).
As to `C[C@@H](Nc1nc(C(=O)O)nc2nc(-c3ccc4c(c3)CCC4)n(Cc3ccc(C(F)(F)F)cc3)c12)C1CC1` [Example 2.74, 6-{[(1R)-1-cyclopropylethyl]amino}-8-(2,3-dihydro-1H-inden-5-yl)-7-[4-(trifluoromethyl)benzyl]-7H-purine-2-carboxylic acid], half-maximal inhibition (IC50) required 205 nM.
For the molecule `C[C@@H](Nc1nc(C(=O)O)nc2nc(-c3ccc(Br)cc3F)n(Cc3ccc(C(F)(F)F)cc3)c12)C1CC1` [Example 2.75, 8-(4-bromo-2-fluorophenyl)-6-{[(1R)-1-cyclopropylethyl]amino}-7-[4-(trifluoromethyl)benzyl]-7H-purine-2-carboxylic acid], the concentration for half-maximal inhibition (IC50) came to 204 nM.
The same measure for `C[C@@H](Nc1nc(C(=O)O)nc2nc(-c3ccc(Cl)c(Cl)c3)n(Cc3ccc(C(F)(F)F)cc3)c12)C1CCC1` [Example 2.76, 6-{[(1R)-1-cyclobutylethyl]amino}-8-(3,4-dichlorophenyl)-7-[4-(trifluoromethyl)benzyl]-7H-purine-2-carboxylic acid]: 20.4 nM; for `C[C@@H](Nc1nc(C(=O)O)nc2nc(-c3ccncc3)n(Cc3ccc(C(F)(F)F)cc3)c12)C1CCC1` [Example 2.77, 6-{[(1R)-1-cyclobutylethyl]amino}-8-pyridin-4-yl-7-[4-(trifluoromethyl)benzyl]-7H-purine-2-carboxylic acid]: 72.6 nM; for `C[C@@H](Nc1nc(C(=O)O)nc2nc(-c3ccccc3C(N)=O)n(Cc3ccc(C(F)(F)F)cc3)c12)C1CC1` [Example 2.78, 8-(2-carbamoylphenyl)-6-{[(1R)-1-cyclopropylethyl]amino}-7-[4-(trifluoromethyl)benzyl]-7H-purine-2-carboxylic acid]: 219 nM.
Molecule `C[C@@H](Nc1nc(C(=O)O)nc2nc(-c3ccccc3C(F)(F)F)n(Cc3ccc(C(F)(F)F)cc3)c12)C1CCC1` [Example 2.79, 6-{[(1R)-1-cyclobutylethyl]amino}-7-[4-(trifluoromethyl)benzyl]-8-[2-(trifluoromethyl)phenyl]-7H-purine-2-carboxylic acid] yielded a half-maximal inhibitory concentration (IC50) of 13.4 nM.
`CCc1ccc(OC)cc1-c1nc2nc(C(=O)O)nc(N[C@H](C)C3CCC3)c2n1Cc1ccc(C(F)(F)F)cc1` [Example 2.80, 6-{[(1R)-1-cyclobutylethyl]amino} -8-(2-ethyl-5-methoxyphenyl)-7-[4-(trifluoromethyl)benzyl]-7H-purine-2-carboxylic acid] came in with an IC50 of 11.1 nM.
